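Test compounds were applied to cells in 96-well plates for 48 hours at 5 doses. Here, GI50 denotes the concentration required for 50% inhibition of growth.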 Activity calls are given as the source filed them. Rule as the data show it: active = GI50 up to about 1.1 µM and inactive = higher.
What was measured:
Assay in all cases: inhibition of tumour cell growth, NCI panel, 48 h
[1] = system: 786-0
[2] = system: A498
[3] = system: A549
[4] = system: ACHN
[5] = system: BT-549
[6] = system: CAKI-1
[7] = system: CCRF-CEM
[8] = system: COLO 205
[9] = system: DU-145
[10] = system: EKVX
[11] = system: HCC 2998
[12] = system: HCT-116
[13] = system: HCT-15
[14] = system: HL-60
[15] = system: HOP-62
[16] = system: HOP-92
[17] = system: HT-29
[18] = system: Hs-578T
[19] = system: IGROV-1
[20] = system: K562
[21] = system: KM12
[22] = system: LOX IMVI
[23] = system: M14
[24] = system: MCF7
[25] = system: MDA-MB-231
[26] = system: MDA-MB-435
[27] = system: MDA-N
[28] = system: MOLT-4
[29] = system: Malme-3M
[30] = system: NCI-H226
[31] = system: NCI-H23
[32] = system: NCI-H460
[33] = system: NCI-H522
[34] = system: NCI/ADR-RES
[35] = system: OVCAR-3
[36] = system: OVCAR-4
[37] = system: OVCAR-5
[38] = system: OVCAR-8
[39] = system: PC-3
[40] = system: RXF 393
[41] = system: SF-268
[42] = system: SF-295
[43] = system: SF-539
[44] = system: SK-MEL-28
[45] = system: SK-MEL-2
[46] = system: SK-MEL-5
[47] = system: SK-OV-3
[48] = system: SN12C
[49] = system: SNB-19
[50] = system: SNB-75
[51] = system: SR
[52] = system: SW-620
[53] = system: T47D
[54] = system: TK-10
[55] = system: U-251
[56] = system: UACC-257
[57] = system: UACC-62
[58] = system: UO-31
[59] = system: RPMI-8226

Cc1cc(=O)c2ccccc2n1CCCCCCCCCCn1c(C)cc(=O)c2ccccc21
GI50 [1]: 16.4 µM (inactive)
GI50 [2]: 15.1 µM (inactive)
GI50 [3]: 20 µM (inactive)
GI50 [4]: 25.2 µM (inactive)
GI50 [5]: 11 µM (inactive)
GI50 [6]: 21.6 µM (inactive)
GI50 [7]: 12.1 µM (inactive)
GI50 [8]: 21.9 µM (inactive)
GI50 [9]: 14 µM (inactive)
GI50 [10]: 11.7 µM (inactive)
GI50 [11]: 11.8 µM (inactive)
GI50 [12]: 8.09 µM (inactive)
GI50 [13]: 31.3 µM
GI50 [14]: 4.38 µM (inactive)
GI50 [15]: > 100 µM (inactive)
GI50 [16]: 22.4 µM (inactive)
GI50 [17]: 15.9 µM (inactive)
GI50 [18]: 23.8 µM (inactive)
GI50 [19]: 17.2 µM (inactive)
GI50 [20]: 4.68 µM (inactive)
GI50 [21]: 15.9 µM (inactive)
GI50 [22]: 5.53 µM (inactive)
GI50 [23]: 34.9 µM (inactive)
GI50 [24]: > 10 µM (inactive)
GI50 [25]: 29.5 µM (inactive)
GI50 [26]: 14.8 µM (inactive)
GI50 [27]: 17.5 µM (inactive)
GI50 [28]: 8.69 µM (inactive)
GI50 [29]: 15.7 µM (inactive)
GI50 [30]: 20.5 µM (inactive)
GI50 [31]: 3.94 µM (inactive)
GI50 [32]: 15.7 µM (inactive)
GI50 [33]: 14.4 µM (inactive)
GI50 [34]: 16.6 µM (inactive)
GI50 [35]: 37.3 µM (inactive)
GI50 [36]: 15.4 µM (inactive)
GI50 [37]: > 100 µM (inactive)
GI50 [38]: 16.8 µM (inactive)
GI50 [39]: 28.8 µM (inactive)
GI50 [40]: 26.1 µM (inactive)
GI50 [41]: 30.2 µM (inactive)
GI50 [42]: > 10 µM (inactive)
GI50 [43]: 25.8 µM (inactive)
GI50 [44]: 20.8 µM (inactive)
GI50 [45]: > 10 µM (inactive)
GI50 [46]: 0.64 µM (active)
GI50 [47]: 19.3 µM (inactive)
GI50 [48]: 21.4 µM (inactive)
GI50 [49]: 18.1 µM (inactive)
GI50 [50]: 30.2 µM (inactive)
GI50 [51]: 13.2 µM (inactive)
GI50 [52]: 20.4 µM (inactive)
GI50 [53]: 16.3 µM (inactive)
GI50 [54]: 14.1 µM (inactive)
GI50 [55]: 15.6 µM (inactive)
GI50 [56]: 11.7 µM (inactive)
GI50 [57]: 17.1 µM (inactive)
GI50 [58]: 12 µM (inactive)

C[N+](C)(C)c1ccc(C(N)C(=O)O)cc1 (stereo unspecified)
GI50 [1]: > 100 µM (inactive)
GI50 [2]: > 100 µM (inactive)
GI50 [4]: > 100 µM (inactive)
GI50 [5]: > 100 µM (inactive)
GI50 [6]: > 100 µM (inactive)
GI50 [7]: > 100 µM (inactive)
GI50 [8]: > 100 µM (inactive)
GI50 [9]: > 100 µM (inactive)
GI50 [10]: > 100 µM (inactive)
GI50 [11]: > 100 µM (inactive)
GI50 [12]: > 100 µM (inactive)
GI50 [13]: > 100 µM
GI50 [14]: 43.7 µM (inactive)
GI50 [15]: > 100 µM (inactive)
GI50 [16]: > 100 µM (inactive)
GI50 [17]: > 100 µM (inactive)
GI50 [18]: > 100 µM (inactive)
GI50 [19]: > 100 µM (inactive)
GI50 [20]: > 100 µM (inactive)
GI50 [21]: > 100 µM (inactive)
GI50 [22]: > 100 µM (inactive)
GI50 [23]: > 100 µM (inactive)
GI50 [24]: > 100 µM (inactive)
GI50 [25]: > 100 µM (inactive)
GI50 [26]: > 100 µM (inactive)
GI50 [27]: > 100 µM (inactive)
GI50 [29]: > 100 µM (inactive)
GI50 [30]: > 100 µM (inactive)
GI50 [31]: > 100 µM (inactive)
GI50 [32]: > 100 µM (inactive)
GI50 [33]: > 100 µM (inactive)
GI50 [34]: > 100 µM (inactive)
GI50 [35]: > 100 µM (inactive)
GI50 [36]: > 100 µM (inactive)
GI50 [37]: > 100 µM (inactive)
GI50 [38]: > 100 µM (inactive)
GI50 [39]: > 100 µM (inactive)
GI50 [59]: > 100 µM (inactive)
GI50 [40]: > 100 µM (inactive)
GI50 [41]: > 100 µM (inactive)
GI50 [42]: > 100 µM (inactive)
GI50 [44]: > 100 µM (inactive)
GI50 [45]: > 100 µM (inactive)
GI50 [46]: > 100 µM (inactive)
GI50 [47]: > 100 µM (inactive)
GI50 [48]: > 100 µM (inactive)
GI50 [49]: > 100 µM (inactive)
GI50 [50]: > 100 µM (inactive)
GI50 [51]: > 100 µM (inactive)
GI50 [52]: > 100 µM (inactive)
GI50 [53]: > 100 µM (inactive)
GI50 [54]: > 100 µM (inactive)
GI50 [55]: > 100 µM (inactive)
GI50 [56]: > 100 µM (inactive)
GI50 [57]: > 100 µM (inactive)
GI50 [58]: > 100 µM (inactive)

Cc1c(O)oc2ccccc2c1=O
GI50 [1]: > 100 µM (inactive)
GI50 [2]: > 100 µM (inactive)
GI50 [3]: > 100 µM (inactive)
GI50 [4]: > 100 µM (inactive)
GI50 [5]: > 100 µM (inactive)
GI50 [6]: > 100 µM (inactive)
GI50 [7]: > 100 µM (inactive)
GI50 [8]: > 100 µM (inactive)
GI50 [9]: > 100 µM (inactive)
GI50 [10]: > 100 µM (inactive)
GI50 [11]: > 100 µM (inactive)
GI50 [12]: > 100 µM (inactive)
GI50 [13]: > 100 µM
GI50 [14]: > 100 µM (inactive)
GI50 [15]: > 100 µM (inactive)
GI50 [16]: > 100 µM (inactive)
GI50 [17]: > 100 µM (inactive)
GI50 [18]: > 100 µM (inactive)
GI50 [19]: > 100 µM (inactive)
GI50 [20]: > 100 µM (inactive)
GI50 [21]: > 100 µM (inactive)
GI50 [22]: > 100 µM (inactive)
GI50 [23]: > 100 µM (inactive)
GI50 [24]: > 100 µM (inactive)
GI50 [25]: > 100 µM (inactive)
GI50 [26]: > 100 µM (inactive)
GI50 [27]: > 100 µM (inactive)
GI50 [28]: > 100 µM (inactive)
GI50 [29]: > 100 µM (inactive)
GI50 [30]: > 100 µM (inactive)
GI50 [31]: > 100 µM (inactive)
GI50 [32]: > 100 µM (inactive)
GI50 [33]: > 100 µM (inactive)
GI50 [34]: > 100 µM (inactive)
GI50 [35]: > 100 µM (inactive)
GI50 [36]: > 100 µM (inactive)
GI50 [37]: > 100 µM (inactive)
GI50 [38]: > 100 µM (inactive)
GI50 [39]: > 100 µM (inactive)
GI50 [59]: > 100 µM (inactive)
GI50 [40]: > 100 µM (inactive)
GI50 [41]: > 100 µM (inactive)
GI50 [42]: > 100 µM (inactive)
GI50 [43]: > 100 µM (inactive)
GI50 [44]: > 100 µM (inactive)
GI50 [45]: > 100 µM (inactive)
GI50 [46]: > 100 µM (inactive)
GI50 [48]: > 100 µM (inactive)
GI50 [49]: > 100 µM (inactive)
GI50 [50]: > 100 µM (inactive)
GI50 [51]: > 100 µM (inactive)
GI50 [52]: > 100 µM (inactive)
GI50 [53]: > 100 µM (inactive)
GI50 [55]: > 100 µM (inactive)
GI50 [56]: > 100 µM (inactive)
GI50 [57]: > 100 µM (inactive)
GI50 [58]: > 100 µM (inactive)

Reference: ChEMBL document CHEMBL1201862, “PubChem BioAssay data set” (2004)
